Laboratory results from PubChem BioAssay (NCI).
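Following 48 hours of exposure in 96-well plates, responses at five concentrations were used to interpolate endpoints linearly. GI50: concentration for 50% inhibition of growth. At the TGI there is no net growth.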

Tests used:
Assay in all cases: NCI tumour cell line growth inhibition, 48 h
786-0 renal = system: 786-0 renal
SW-620 colon = system: SW-620 colon
NCI-H460 lung = system: NCI-H460 lung
MOLT-4 leukemia = system: MOLT-4 leukemia
SF-539 CNS = system: SF-539 CNS
K-562 leukemia = system: K-562 leukemia
SK-MEL-5 melanoma = system: SK-MEL-5 melanoma
MALME-3M melanoma = system: MALME-3M melanoma
CAKI-1 renal = system: CAKI-1 renal

SMILES	TGI (786-0 renal) [µM]	TGI (SW-620 colon) [µM]	TGI (NCI-H460 lung) [µM]	TGI (MOLT-4 leukemia) [µM]	TGI (SF-539 CNS) [µM]	TGI (K-562 leukemia) [µM]	TGI (SK-MEL-5 melanoma) [µM]	TGI (MALME-3M melanoma) [µM]	TGI (CAKI-1 renal) [µM]	GI50 (786-0 renal) [µM]	GI50 (SW-620 colon) [µM]	GI50 (NCI-H460 lung) [µM]	GI50 (MOLT-4 leukemia) [µM]	GI50 (SF-539 CNS) [µM]	GI50 (K-562 leukemia) [µM]	GI50 (SK-MEL-5 melanoma) [µM]	GI50 (MALME-3M melanoma) [µM]	GI50 (CAKI-1 renal) [µM]
O=C1c2ccccc2C(=O)N1C/C=C/CO	> 100	> 100	> 100	> 100	> 100	> 100	> 100	> 100	> 100	–	–	–	–	–	–	–	–	–
O=C(COC(=O)c1cccc2c(=O)c3ccccc3[nH]c12)Nc1ccccc1	> 100	> 100	> 100	43.8	> 100	> 100	42.7	> 100	> 100	–	–	–	–	–	–	–	–	–
CCOC(=O)[C@@H](C)C[C@H](Cc1ccccc1)NC(=O)c1csc([C@@H](C[C@H](C(C)C)N(C)C(=O)[C@H](CC)NC(=O)[C@H]2CCCCN2C)OC(C)=O)n1	> 16.7	> 16.7	> 16.7	> 16.7	0.0098	> 16.7	0.0432	> 16.7	> 16.7	0.00387	< 0.00167	< 0.00167	0.00896	0.00306	< 0.00167	< 0.00167	< 0.00167	< 0.00167
O=C(NC1C2CC3CC(C2)CC1C3)c1cc(/C=C/c2ccccc2)[nH]c(=S)n1 (configuration not stated)	> 100	> 100	> 100	> 100	> 100	> 100	> 100	> 100	> 100	–	–	–	–	–	–	–	–	–
N#CCC(=O)N/N=C(\C(=O)Nc1ccc(Cl)c(Cl)c1)C1CN(c2ccccc2)N=C1N (configuration not stated)	> 100	–	> 100	> 100	> 100	> 100	> 100	> 100	–	–	–	–	–	–	–	–	–	–
CSCCOC(=O)C(=[N+]=[N-])c1ccc([N+](=O)[O-])cc1	> 100	> 100	> 100	> 100	> 100	> 100	–	> 100	> 100	–	–	–	–	–	–	–	–	–
Clc1cc2n[se]nc2cc1Cl	> 100	> 100	> 100	> 100	> 100	> 100	> 100	> 100	> 100	–	–	–	–	–	–	–	–	–
COc1cc2c(cc1OC)C(=O)Cc1ccc(OC)c(OC)c1CN(C)CC2	> 100	> 100	84.4	> 100	> 100	> 100	> 100	> 100	> 100	–	–	–	–	–	–	–	–	–
c1ccc2c(c1)[nH]c1c2nc2ncccn21	> 100	> 100	> 100	> 100	> 100	> 100	> 100	> 100	> 100	–	–	–	–	–	–	–	–	–
COC(=O)c1ccc(Cl)cc1NC(=O)C1CCCCC1	> 100	> 100	–	> 100	> 100	> 100	–	> 100	> 100	–	–	–	–	–	–	–	–	–
O=C1CC(O)(c2ccccc2)C(c2ccccc2)=C1c1ccccc1 (configuration not stated)	> 100	> 100	> 100	81.5	–	> 100	86.7	> 100	> 100	–	–	–	–	–	–	–	–	–
CC(C)(C)OC(=O)NC(CO)c1cccc(OCc2ccccc2)c1 (configuration not stated)	> 100	> 100	> 100	> 100	> 100	> 100	> 100	> 100	> 100	–	–	–	–	–	–	–	–	–
COc1ccc2oc(C(=O)O)c3c2c1CCC3	> 100	> 100	> 100	> 100	> 100	> 100	> 100	–	> 100	–	–	–	–	–	–	–	–	–
N#C/C(=C/Sc1ccccc1)C(=O)O	77.9	> 100	> 100	> 100	35.2	> 100	> 100	–	79.5	–	–	–	–	–	–	–	–	–
COc1ccc(OC(C(=O)O)c2ccccc2)c2c1CCCC2=O (configuration not stated)	> 100	> 100	> 100	> 100	> 100	> 100	> 100	> 100	> 100	–	–	–	–	–	–	–	–	–
Cc1nn(-c2nc3ccccc3s2)c2c1C(=O)c1ccccc1-2	> 100	> 100	> 100	–	> 100	> 100	> 100	> 100	–	–	–	–	–	–	–	–	–	–
Fc1cccc2c1cc1ccc3cccc4ccc2c1c34	> 100	> 100	–	> 100	> 100	> 100	> 100	> 100	> 100	–	–	–	–	–	–	–	–	–
NCCN1C(=O)C2C3c4ccccc4C(c4ccccc43)C2C1=O (configuration not stated)	> 100	> 100	> 100	> 100	> 100	> 100	> 100	> 100	> 100	–	–	–	–	–	–	–	–	–
CNC(=O)c1cccc2c(Nc3ccc(NS(C)(=O)=O)cc3OC)c3cccc(C)c3nc12	0.413	5.5	0.816	0.0512	0.661	4.79	1.9	4.55	1.41	–	–	–	–	–	–	–	–	–
CCOc1ccccc1NC(=O)CCc1n[nH]c(=S)o1	> 100	> 100	–	> 100	> 100	> 100	> 100	> 100	> 100	–	–	–	–	–	–	–	–	–
